Experiments:
Experiment in all cases: relative viability (nuclei count vs DMSO), 5 days (fraction); higher = more cells survive
Pictilisib + Olaparib = compound: CS(=O)(=O)N1CCN(Cc2cc3nc(-c4cccc5[nH]ncc45)nc(N4CCOCC4)c3s2)CC1 [Pictilisib] + O=C(c1cc(Cc2n[nH]c(=O)c3ccccc23)ccc1F)N1CCN(C(=O)C2CC2)CC1 [Olaparib] (partner 8 µM)
Procedure, shortened: (§1)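 One day after seeding in 1536-well plates, lung cancer cell lines were dosed by pin tool. Dosing was either single-drug or a fixed anchor-drug dose plus five library-drug doses (not always all listed) in √10 steps. After 5 days, nuclei were stained in one fix-and-stain step and counted on 4× images, and relative viability is the nuclei count of treated wells over that of vehicle wells, given as the median of duplicate plates.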

MK-2206 + Trametinib = compound: NC1(c2ccc(-c3nc4ccn5c(=O)[nH]nc5c4cc3-c3ccccc3)cc2)CCC1 [MK-2206] + CC(=O)Nc1cccc(-n2c(=O)n(C3CC3)c(=O)c3c(Nc4ccc(I)cc4F)n(C)c(=O)c(C)c32)c1 [Trametinib] (partner 0.02 µM)
Procedure, shortened: as §1

Pictilisib + Foretinib = compound: CS(=O)(=O)N1CCN(Cc2cc3nc(-c4cccc5[nH]ncc45)nc(N4CCOCC4)c3s2)CC1 [Pictilisib] + COc1cc2c(Oc3ccc(NC(=O)C4(C(=O)Nc5ccc(F)cc5)CC4)cc3F)ccnc2cc1OCCCN1CCOCC1 [Foretinib] (partner 0.25 µM)
Procedure, shortened: as §1

MK-2206 + Dasatinib = compound: NC1(c2ccc(-c3nc4ccn5c(=O)[nH]nc5c4cc3-c3ccccc3)cc2)CCC1 [MK-2206] + Cc1nc(Nc2ncc(C(=O)Nc3c(C)cccc3Cl)s2)cc(N2CCN(CCO)CC2)n1 [Dasatinib] (partner 0.075 µM)
Procedure, shortened: as §1

MK-2206 + Phenformin = compound: NC1(c2ccc(-c3nc4ccn5c(=O)[nH]nc5c4cc3-c3ccccc3)cc2)CCC1 [MK-2206] + N=C(N)NC(=N)NCCc1ccccc1 [Phenformin] (partner 250 µM)
Procedure, shortened: as §1

## UMC-11
Pictilisib + Olaparib; first compound 0.02 µM
  relative viability: 0.822
Pictilisib + Olaparib; first compound 0.06325 µM
  relative viability: 0.344
Pictilisib + Olaparib; first compound 0.6325 µM
  relative viability: 0.666
Pictilisib + Olaparib; first compound 2 µM
  relative viability: 0.384
MK-2206 + Trametinib; first compound 0.01 µM
  relative viability: 0.594
MK-2206 + Trametinib; first compound 0.03162 µM
  relative viability: 0.717
MK-2206 + Trametinib; first compound 0.3162 µM
  relative viability: 0.772
MK-2206 + Trametinib; first compound 1 µM
  relative viability: 0.966
Pictilisib + Foretinib; first compound 0.02 µM
  relative viability: 0.983
Pictilisib + Foretinib; first compound 0.06325 µM
  relative viability: 1.25
Pictilisib + Foretinib; first compound 0.6325 µM
  relative viability: 1.13
Pictilisib + Foretinib; first compound 2 µM
  relative viability: 0.979
MK-2206 + Dasatinib; first compound 0.01 µM
  relative viability: 0.465
MK-2206 + Dasatinib; first compound 0.03162 µM
  relative viability: 0.434
MK-2206 + Dasatinib; first compound 0.3162 µM
  relative viability: 0.503
MK-2206 + Dasatinib; first compound 1 µM
  relative viability: 0.475
MK-2206 + Phenformin; first compound 0.01 µM
  relative viability: 0.351
MK-2206 + Phenformin; first compound 0.03162 µM
  relative viability: 0.312
MK-2206 + Phenformin; first compound 0.3162 µM
  relative viability: 0.33
MK-2206 + Phenformin; first compound 1 µM
  relative viability: 0.316

From the supplement of paper PMC10307832
